# Assay results reported in US11535670B2, “Combination therapies of HDAC inhibitors and PD-L1 inhibitors” (HUYABIO International, LLC, priority 2016, dated 2022).
# How the values were obtained:
# [1] = tested on: MC38 murine colon carcinoma; test: Example 2: tumor growth delay in MC38 syngeneic model, HBI-8000 alone and with PD-L1 inhibitor antibody; type: in vivo, C57BL/6 mice; conditions: HBI-8000 50 mg/kg p.o. qd×21, anti-PDL-1 5 mg/kg i.p. biwk×3
# Description: In the present example, HBI-8000 was tested as monotherapy and in combination with PD-L1 inhibitor antibody at 5 mg/kg. The experiment included a vehicle-treated group and a PD-L1 inhibitor antibody monotherapy group, which served as the control groups for analysis of efficacy. Tumors were measured twice per week until the study was ended on Day 50. Each animal was euthanized when its tumor attained the endpoint tumor volume of 1000 mm^3 or on the final day of the study, whichever came first, and the time to endpoint (TTE) for each mouse was calculated. Treatment response was determined from an analysis of percent tumor growth delay (% TGD), defined as the percent increase in the median time to endpoint (TTE) for treated versus control mice; and by logrank significance of differences in survival among groups and regression responses.
# Mice: Details of the animals used in this example can be found in Example 1.
# Tumor Cell Culture: Details of the tumor cells used in this example can be found in Example 1.
# Tumor Implantation and Measurement: Details of tumor implantation and measurement of tumor growth used in this example can be found in paragraph Example 1. […]
# Statistics: Details of the statistics and software used in this study can be found in Example 1. […] Table 3.1 describes the values calculated for TTE and % TGD for each treatment group.
# [2] = tested on: MC38 murine colon carcinoma; test: Example 3: second-line therapy of MC38 tumors progressing after first-line PD-1 inhibitor antibody, response rates; type: in vivo, C57BL/6 mice; conditions: second-line after failing PD-1 inhibitor antibody; HBI-8000 50 mg/kg p.o. qd×21; antibodies 5 mg/kg i.p. biwk×2 (Table 4: biwk × 3)
# Excerpt: In this model, a proportion of the animals treated 1st line with the PD-1 checkpoint inhibitor antibody experience complete tumor regression. However, a similar proportion of animals treated 1st line with the PD-1 inhibitor antibody experience rapid tumor progression. The balance of the animals treated in this way experience slow tumor progression or stable disease, which is a result which approximates the situation in a number of human cancer patients receiving PD-1 inhibitor antibody therapy, i.e., they experience a transient partial response, including stable disease, but then develop resistance and rapidly progress, failing PD-1 inhibitor antibody therapy. In this example, the efficacy of HBI-8000 (DZ1) as a second-line therapy, alone and in combination with PDL-1 inhibitor antibody 10F.9G2 (anti-PDL-1), was evaluated for the ability to cause tumor growth delay (TGD) in animals which tumors progressed following PD-1 inhibitor antibody first line of therapy in the MC38 murine colon carcinoma syngeneic model in immunocompetent C57BL/6 mice.
# Female C57BL/6 mice bearing subcutaneous MC38 tumors (mean tumor volume: 114 mm^3 when treatment began) were treated with a first line of therapy of PD-1 inhibitor antibody treatment, administered intraperitoneally (i.p.) at 5 mg/kg, twice weekly for two weeks (biwk×2). […] Dosing began on Dl, which represented the day of recruitment and varied among mice (this was normalized for each group). The second line therapies were as follows. Vehicle was administered orally (p.o.). HBI-8000 was administered p.o. at 50 mg/kg. PD-1 inhibitor antibody and anti-PDL-1 were each administered intraperitoneally (i.p) at 5 mg/kg. Group 1 mice served as controls and received 0.2% carboxymethyl cellulose: 0.1% Tween 80 in deionized water (vehicle) once daily for twenty-one days (qd×21). Group 2 received HBI-8000 qd×21. Group 3 received a second course of PD-1 inhibitor antibody biwk×2. Group 4 received HBI-8000 qd×21 and PD-1 inhibitor antibody biwk×2. Group 5 received anti-PDL-1 biwk×2. Group 6 received HBI-8000 qd×21 and anti-PDL-1 biwk×2. […]
# [3] = biological target: HDAC 3 (Homo sapiens, UniProt O15379); conditions: cited from earlier work
# HDAC 3, sequence (O15379 whole entry): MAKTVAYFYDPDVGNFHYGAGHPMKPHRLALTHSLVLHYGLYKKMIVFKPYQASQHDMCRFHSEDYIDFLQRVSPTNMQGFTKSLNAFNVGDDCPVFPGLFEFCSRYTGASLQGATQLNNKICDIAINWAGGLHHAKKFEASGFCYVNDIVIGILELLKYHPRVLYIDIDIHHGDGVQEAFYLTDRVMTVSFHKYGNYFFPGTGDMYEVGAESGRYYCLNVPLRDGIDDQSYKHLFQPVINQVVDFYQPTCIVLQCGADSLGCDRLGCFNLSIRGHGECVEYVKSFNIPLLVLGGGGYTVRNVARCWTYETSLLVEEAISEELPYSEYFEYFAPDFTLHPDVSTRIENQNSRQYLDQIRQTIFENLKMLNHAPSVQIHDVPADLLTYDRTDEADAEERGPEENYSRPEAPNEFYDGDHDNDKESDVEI
# HDAC 3, sequence (Q9Y618 395-489 partner limits assumed): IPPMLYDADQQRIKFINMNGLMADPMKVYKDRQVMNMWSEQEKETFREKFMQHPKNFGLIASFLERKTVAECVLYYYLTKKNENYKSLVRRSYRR
smiles,measurement,setting,value
"Nc1cc(F)ccc1NC(=O)c1ccc(CNC(=O)/C=C/c2cccnc2)cc1 [HBI-8000, N-(2-amino-4-fluorophenyl)-4-[[[(2E)-1-oxo-3-(3-pyridinyl)-2-propen-1-yl]amino]methyl]benzamide]",Median TTE,[1]; endpoint 1000 mm^3 or Day 50,28.4 days
same,% TGD,[1]; versus vehicle,62%
same,Response rate: CR (complete response),[2],20%
same,Response rate: NR (no response),[2],40%
same,Response rate: PR (partial response),[2],40%
same,inhibition of HDAC 3,[3],low nanomolar concentrations
same,activity at HDAC 3 compared with Entinostat,[3]; versus Entinostat,more active than Entinostat
